Assay results as given in patent publication US20230072683A1, “PYRIDO-PYRIMIDIN DERIVATIVES AND PHARMACEUTICAL COMPOSITION, FOR USE IN PREVENTING OR TREATING PI3 KINASE RELATED DISEASES, COMPRISING SAME AS ACTIVE INGREDIENT” (BORYUNG PHARMACEUTICAL CO., LTD, priority 2019, published 2023).

Tests used:
[1] = target: PI3K-δ (PI3K(p1108/p857) (h)) (Homo sapiens, UniProt O00329); assay: Evaluation of inhibitory activity against PI3K-δ (HTRF kinase assay); assay type: biochemical; conditions: for inhibition at 0.01 µM: compound concentration 0.01 μM, read-out: EXP_VALUE(% Inhibition) PI3K-δ 0.01 μM; for inhibition at 0.1 µM: compound concentration 0.1 μM, read-out: EXP_VALUE(% Inhibition) PI3K-δ 0.1 μM
Sequence of PI3K-δ (PI3K(p1108/p857) (h)) (O00329 whole entry, the tested form may be a part): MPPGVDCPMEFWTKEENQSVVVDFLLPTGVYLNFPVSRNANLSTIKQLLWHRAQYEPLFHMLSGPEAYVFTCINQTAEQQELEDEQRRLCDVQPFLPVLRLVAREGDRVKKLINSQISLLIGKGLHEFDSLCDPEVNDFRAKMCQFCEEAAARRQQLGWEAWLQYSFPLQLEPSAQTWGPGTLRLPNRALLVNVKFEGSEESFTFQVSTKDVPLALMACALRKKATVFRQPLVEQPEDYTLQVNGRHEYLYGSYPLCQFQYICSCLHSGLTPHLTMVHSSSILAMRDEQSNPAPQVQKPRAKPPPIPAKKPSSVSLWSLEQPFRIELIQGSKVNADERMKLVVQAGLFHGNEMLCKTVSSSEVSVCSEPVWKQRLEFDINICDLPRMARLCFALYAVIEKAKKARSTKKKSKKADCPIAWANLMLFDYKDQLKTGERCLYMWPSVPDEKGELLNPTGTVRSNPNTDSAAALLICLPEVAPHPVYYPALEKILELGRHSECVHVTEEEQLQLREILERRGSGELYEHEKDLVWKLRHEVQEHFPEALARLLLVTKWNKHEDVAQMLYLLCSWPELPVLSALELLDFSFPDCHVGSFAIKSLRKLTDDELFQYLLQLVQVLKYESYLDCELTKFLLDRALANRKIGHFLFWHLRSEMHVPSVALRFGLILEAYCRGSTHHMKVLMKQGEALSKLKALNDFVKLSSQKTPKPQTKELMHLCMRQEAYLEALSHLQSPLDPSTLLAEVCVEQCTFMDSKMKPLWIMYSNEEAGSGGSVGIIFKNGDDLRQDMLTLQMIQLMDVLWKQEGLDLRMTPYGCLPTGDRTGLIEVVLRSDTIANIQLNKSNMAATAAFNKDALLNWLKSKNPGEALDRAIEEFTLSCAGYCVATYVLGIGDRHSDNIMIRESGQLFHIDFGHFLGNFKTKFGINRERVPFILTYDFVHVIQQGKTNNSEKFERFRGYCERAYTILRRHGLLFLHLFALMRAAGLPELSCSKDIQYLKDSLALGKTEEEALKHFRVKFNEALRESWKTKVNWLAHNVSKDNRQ
Sequence of PI3K-δ (PI3K(p1108/p857) (h)) (P27986 whole entry partner, the tested form may be a part): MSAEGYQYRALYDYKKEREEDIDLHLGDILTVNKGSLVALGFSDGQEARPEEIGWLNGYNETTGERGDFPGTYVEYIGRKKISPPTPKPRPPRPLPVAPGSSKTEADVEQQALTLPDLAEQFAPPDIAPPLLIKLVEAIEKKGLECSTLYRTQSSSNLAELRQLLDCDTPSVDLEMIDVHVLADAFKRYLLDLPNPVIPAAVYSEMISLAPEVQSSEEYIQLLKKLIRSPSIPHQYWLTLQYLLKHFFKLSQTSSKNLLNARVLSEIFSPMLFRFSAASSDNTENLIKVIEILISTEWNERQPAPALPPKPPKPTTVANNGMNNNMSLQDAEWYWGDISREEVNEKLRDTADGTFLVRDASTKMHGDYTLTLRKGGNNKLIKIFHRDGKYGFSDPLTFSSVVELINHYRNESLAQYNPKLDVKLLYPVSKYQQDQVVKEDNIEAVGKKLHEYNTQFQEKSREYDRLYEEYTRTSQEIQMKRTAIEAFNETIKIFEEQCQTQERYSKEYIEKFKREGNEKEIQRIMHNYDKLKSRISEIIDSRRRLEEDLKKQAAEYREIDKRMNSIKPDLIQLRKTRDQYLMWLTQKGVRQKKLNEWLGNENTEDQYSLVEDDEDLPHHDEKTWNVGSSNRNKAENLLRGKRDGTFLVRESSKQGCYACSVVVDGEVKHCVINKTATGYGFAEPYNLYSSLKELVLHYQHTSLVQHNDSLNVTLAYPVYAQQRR
Summary of the method: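 HTRF read-out (665/620 nm ratio ×10000) used Eu-labelled anti-GST, GST-tagged GRP1 PH domain and streptavidin-allophycocyanin after EDTA/PIP3 stop.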

[2] = target: DNA-PK(h) (Homo sapiens, UniProt P78527); assay: Evaluation of inhibitory activity against DNA-PK (HTRF kinase assay, GST-cMyc-p53 substrate); assay type: biochemical; conditions: for inhibition at 0.01 µM: compound concentration 0.01 μM, read-out: EXP_VALUE(% Inhibition) DNA-PK(h) 0.01 μM; for inhibition at 0.1 µM: compound concentration 0.1 μM, read-out: EXP_VALUE(% Inhibition) DNA-PK(h) 0.1 μM
Summary of the method: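 p53 Ser15 phosphorylation by human DNA-PK was measured by time-resolved FRET ratio (665/620 nm ×10000) using Eu-labelled anti-phospho-Ser15 and d2 anti-GST antibodies. Substrate GST-cMyc-p53 at 50 μM; Mg/ATP-initiated, 30 min at room temperature, EDTA stop.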

Row | Compound | inhibition at 0.01 µM [1] [%] | inhibition at 0.1 µM [1] [%] | inhibition at 0.01 µM [2] [%] | inhibition at 0.1 µM [2] [%]
1 | C[C@H](Nc1ncnc2[nH]ccc(=O)c12)c1c(Cl)c2cccc(/C=C/c3ccccc3)c2c(=O)n1-c1ccccc1 [Example 70, (S,E)-4-((1-(4-chloro-1-oxo-2-phenyl-8-styryl-1,2-dihydroisoquinolin-3-yl)ethyl)amino)pyrido[2,3-d]pyrimidin-5(8H)-one] | 10.2 | 29.9 | -1.2 | 23.6
2 | C[C@H](Nc1ncnc2[nH]ccc(=O)c12)c1c(Cl)c2cccc(-c3ccc(Cl)c(Cl)c3)c2c(=O)n1-c1ccccc1 [Example 71, (S)-4-((1-(4-chloro-8-(3,4-dichlorophenyl)-1-oxo-2-phenyl-1,2-dihydroisoquinolin-3-yl)ethyl)amino)pyrido[2,3-d]pyrimidin-5(8H)-one] | 17 | 44 | 16 | 41
3 | C[C@H](Nc1ncnc2[nH]ccc(=O)c12)c1c(Cl)c2cccc(-c3ccc(N(C)C)cc3)c2c(=O)n1-c1ccccc1 [Example 72, (S)-4-((1-(4-chloro-8-(4-(dimethylamino)phenyl)-1-oxo-2-phenyl-1,2-dihydroisoquinolin-3-yl)ethyl)amino)pyrido[2,3-d]pyrimidin-5(8H)-one] | 99 | 112 | 58 | 96
4 | C[C@H](Nc1ncnc2[nH]ccc(=O)c12)c1c(Cl)c2cccc(-c3ccc4[nH]ccc4c3)c2c(=O)n1-c1ccccc1 [Example 73, (S)-4-((1-(4-chloro-8-(1H-indol-5-yl)-1-oxo-2-phenyl-1,2-dihydroisoquinolin-3-yl)ethyl)amino)pyrido[2,3-d]pyrimidin-5(8H)-one] | 72 | 86 | 53 | 92
5 | Cc1c[nH]c2ccc(-c3cccc4c(Cl)c([C@H](C)Nc5ncnc6[nH]ccc(=O)c56)n(-c5ccccc5)c(=O)c34)cc12 [Example 74, (S)-4-((1-(4-chloro-8-(3-methyl-1H-indol-5-yl)-1-oxo-2-phenyl-1,2-dihydroisoquinolin-3-yl)ethyl)amino)pyrido[2,3-d]pyrimidin-5(8H)-one] | 65 | 88 | 54 | 90
6 | C[C@H](Nc1ncnc2[nH]ccc(=O)c12)c1c(Cl)c2cccc(-c3ccc(N4CCOCC4)cc3)c2c(=O)n1-c1ccccc1 [Example 75, (S)-4-((1-(4-chloro-8-(4-morpholinophenyl)-1-oxo-2-phenyl-1,2-dihydroisoquinolin-3-yl)ethyl)amino)pyrido[2,3-d]pyrimidin-5(8H)-one] | 79 | 86 | 82 | 99
7 | CC(C)C1CCN(c2cccc3c(Cl)c([C@H](C)Nc4ncnc5[nH]ccc(=O)c45)n(-c4ccccc4)c(=O)c23)CC1 [Example 76, (S)-4-((1-(4-chloro-8-(4-isopropylpiperidin-1-yl)-1-oxo-2-phenyl-1,2-dihydroisoquinolin-3-yl)ethyl)amino)pyrido[2,3-d]pyrimidin-5(8H)-one] | 14 | 43 | 1 | 20
8 | C[C@H](Nc1ncnc2[nH]ccc(=O)c12)c1c(Cl)c2cccc(N3CCC(NC(=O)OC(C)(C)C)CC3)c2c(=O)n1-c1ccccc1 [Example 77, tert-butyl(S)-(1-(4-chloro-1-oxo-3-(1-((5-oxo-5,8-dihydropyrido[2,3-d]pyrimidin-4-yl)amino)ethyl)-2-phenyl-1,2-dihydroisoquinolin-8-yl)piperidin-4-yl) carbamate] | 45 | 78 | 9 | 64
9 | C[C@H](Nc1ncnc2[nH]ccc(=O)c12)c1c(Cl)c2cccc(N3CCN(c4ccccc4O)CC3)c2c(=O)n1-c1ccccc1 [Example 78, (S)-4-((1-(4-chloro-8-(4-(2-hydroxyphenyl)piperazin-1-yl)-1-oxo-2-phenyl-1,2-dihydroisoquinolin-3-yl)ethyl)amino)pyrido[2,3-d]pyrimidin-5(8H)-one] | 46 | 78 | 18 | 56
10 | C[C@H](Nc1ncnc2[nH]ccc(=O)c12)c1c(Cl)c2cccc(-c3cccc(C=O)c3)c2c(=O)n1-c1ccccc1 [Example 79, (S)-3-(4-chloro-1-oxo-3-(1-((5-oxo-5,8-dihydropyrido[2,3-d]pyrimidin-4-yl)amino)ethyl)-2-phenyl-1,2-dihydroisoquinolin-8-yl)benzaldehyde] | 114 | 111 | 82 | 98
11 | C[C@H](Nc1ncnc2[nH]ccc(=O)c12)c1c(Cl)c2cccc(-c3ccc(C(N)=O)cc3)c2c(=O)n1-c1ccccc1 [Example 80, (S)-4-(4-chloro-1-oxo-3-(1-((5-oxo-5,8-dihydropyrido[2,3-d]pyrimidin-4-yl)amino)ethyl)-2-phenyl-1,2-dihydroisoquinolin-8-yl)benzamide] | 110 | 101 | 90 | 106
12 | C[C@H](Nc1ncnc2[nH]ccc(=O)c12)c1cc2cccc(-c3ccc(C(N)=O)cc3)c2c(=O)n1-c1ccccc1 [Example 81, (S)-4-(1-oxo-3-(1-((5-oxo-5,8-dihydropyrido[2,3-d]pyrimidin-4-yl)amino)ethyl)-2-phenyl-1,2-dihydroisoquinolin-8-yl)benzamide] | 97 | 105 | 22 | 76
13 | Cc1c(-c2cccc3c(Cl)c([C@H](C)Nc4ncnc5[nH]ccc(=O)c45)n(-c4ccccc4)c(=O)c23)cnn1C [Example 82, (S)-4-((1-(4-chloro-8-(1,5-dimethyl-1H-pyrazol-4-yl)-1-oxo-2-phenyl-1,2-dihydroisoquinolin-3-yl)ethyl)amino)pyrido[2,3-d]pyrimidin-5(8H)-one] | 73 | 94 | 74 | 94
14 | C[C@H](Nc1ncnc2[nH]ccc(=O)c12)c1c(Cl)c2cccc(-c3cnn(CCN(C)C)c3)c2c(=O)n1-c1ccccc1 [Example 83, (S)-4-((1-(4-chloro-8-(1-(2-(dimethylamino)ethyl)-1H-pyrazol-4-yl)-1-oxo-2-phenyl-1,2-dihydroisoquinolin-3-yl)ethyl)amino)pyrido[2,3-d]pyrimidin-5(8H)-one] | 56 | 89 | 66 | 94
15 | C[C@H](Nc1ncnc2[nH]ccc(=O)c12)c1c(Cl)c2cccc(-c3ccc(Cl)cc3)c2c(=O)n1-c1ccccc1 [Example 84, (S)-4-((1-(4-chloro-8-(4-chlorophenyl)-1-oxo-2-phenyl-1,2-dihydroisoquinolin-3-yl)ethyl)amino)pyrido[2,3-d]pyrimidin-5(8H)-one] | 49 | 91 | 16 | 65
16 | C[C@H](Nc1ncnc2[nH]ccc(=O)c12)c1c(Cl)c2cccc(-c3ccc(C=O)cc3)c2c(=O)n1-c1ccccc1 [Example 85, (S)-4-(4-chloro-1-oxo-3-(1-((5-oxo-5,8-dihydropyrido[2,3-d]pyrimidin-4-yl)amino)ethyl)-2-phenyl-1,2-dihydroisoquinolin-8-yl)benzaldehyde] | 73 | 95 | 56 | 91
17 | C[C@H](Nc1ncnc2[nH]ccc(=O)c12)c1c(Cl)c2cccc(-c3ccc(N(C)C)nc3)c2c(=O)n1-c1ccccc1 [Example 86, (S)-4-((1-(4-chloro-8-(6-(dimethylamino)pyridin-3-yl)-1-oxo-2-phenyl-1,2-dihydroisoquinolin-3-yl)ethyl)amino)pyrido[2,3-d]pyrimidin-5(8H)-one] | 67 | 94 | 72 | 95
18 | C[C@H](Nc1ncnc2[nH]ccc(=O)c12)c1c(Cl)c2cccc(-c3ccc(N4CCCC4)cc3)c2c(=O)n1-c1ccccc1 [Example 87, (S)-4-((1-(4-chloro-1-oxo-2-phenyl-8-(4-(pyrrolidin-1-yl)phenyl)-1,2-dihydroisoquinolin-3-yl)ethyl)amino)pyrido[2,3-d]pyrimidin-5(8H)-one] | 38 | 83 | 31 | 79
19 | C[C@H](Nc1ncnc2[nH]ccc(=O)c12)c1c(Cl)c2cccc(-c3ccc(N4CCCCC4)cc3)c2c(=O)n1-c1ccccc1 [Example 88, (S)-4-((1-(4-chloro-1-oxo-2-phenyl-8-(4-(piperidin-1-yl)phenyl)-1,2-dihydroisoquinolin-3-yl)ethyl)amino)pyrido[2,3-d]pyrimidin-5(8H)-one] | 42 | 88 | 33 | 78
20 | C[C@H](Nc1ncnc2[nH]ccc(=O)c12)c1c(Cl)c2cccc(-c3cccc4[nH]ccc34)c2c(=O)n1-c1ccccc1 [Example 89, (S)-4-((1-(4-chloro-8-(1H-indol-4-yl)-1-oxo-2-phenyl-1,2-dihydroisoquinolin-3-yl)ethyl)amino)pyrido[2,3-d]pyrimidin-5(8H)-one] | 58 | 92 | 17 | 52
